Results published in patent publication US20230278983A1, “INDOLE DERIVATIVES AND USES THEREOF FOR TREATING A CANCER” (Universite Claude Bernard Lyon 1, priority 2020, published 2023).
pIC50: −log10 of the molar value. Like-named read-outs stand apart in the source and are kept apart here.

Molecular target: CK2 (Homo sapiens (Human), UniProt P68400)
Assay: Radiometric CK2 kinase assay
Assay type: biochemical
[1] = inhibition of CK2 activity, ATP 10 μM

CK2, sequence (P68400 whole entry): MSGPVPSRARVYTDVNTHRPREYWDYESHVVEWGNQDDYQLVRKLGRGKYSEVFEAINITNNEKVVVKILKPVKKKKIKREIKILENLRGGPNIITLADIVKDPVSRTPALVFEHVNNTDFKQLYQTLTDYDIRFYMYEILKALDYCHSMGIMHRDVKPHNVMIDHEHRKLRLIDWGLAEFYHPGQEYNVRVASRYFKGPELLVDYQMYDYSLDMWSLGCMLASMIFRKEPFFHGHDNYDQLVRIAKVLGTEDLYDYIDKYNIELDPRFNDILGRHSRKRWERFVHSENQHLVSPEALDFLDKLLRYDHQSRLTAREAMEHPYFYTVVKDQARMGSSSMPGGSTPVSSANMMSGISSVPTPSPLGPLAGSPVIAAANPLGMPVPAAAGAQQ

O=S(=O)(NCCN1CCC(Cn2cc(-c3c[nH]c4ccccc34)nn2)CC1)c1ccccc1 [AB150, N-(2-(4-((4-(1H-Indol-3-yl)-1H-1,2,3-triazol-1-yl)methyl)piperidin-1-yl)ethyl)benzenesulfonamide]
pIC50: 4.31

O=S(=O)(NCCN1CCC(Cn2cc(-c3c[nH]c4ccccc34)nn2)CC1)c1ccc(Cl)cc1 [AB152, N-(2-(4-((4-(1H-Indol-3-yl)-1H-1,2,3-triazol-1-yl)methyl)piperidin-1-yl)ethyl)-4-chlorobenzenesulfonamide]
pIC50: 4.46

O=S(=O)(NCCN1CCC(Cn2cc(-c3c[nH]c4ccc(F)cc34)nn2)CC1)c1ccc(Cl)cc1 [AB153, 4-Chloro-N-(2-(4-((4-(5-fluoro-1H-indol-3-yl)-1H-1,2,3-triazol-1-yl)methyl)piperidin-1-yl)ethyl)benzenesulfonamide]
pIC50: 4.82

O=C(O)c1[nH]c2ccc(Cl)cc2c1-c1cn(CC2CCN(CCNS(=O)(=O)c3ccc(Cl)cc3)CC2)nn1 [AB201, 5-Chloro-3-(1-((1-(2-((4-chlorophenyl)sulfonamido)ethyl)piperidin-4-yl)methyl)-1H-1,2,3-triazol-4-yl)-1H-indole-2-carboxylic acid]
pIC50 [1]: 5.00

O=C(O)c1[nH]c2cc(Cl)ccc2c1-c1cn(CC2CCN(CCNS(=O)(=O)c3ccc(Cl)cc3)CC2)nn1 [AB202, 6-Chloro-3-(1-((1-(2-((4-chlorophenyl)sulfonamido)ethyl)piperidin-4-yl)methyl)-1H-1,2,3-triazol-4-yl)-1H-indole-2-carboxylic acid]
pIC50 [1]: 4.92

CCOC(=O)c1[nH]c2ccc(F)cc2c1-c1cn(CC2CCN(CCNS(=O)(=O)c3ccc(Cl)cc3)CC2)nn1 [AB401, Ethyl 3-(1-((1-(2-((4-chlorophenyl)sulfonamido)ethyl)piperidin-4-yl)methyl)-1H-1,2,3-triazol-4-yl)-5-fluoro-1H-indole-2-carboxylate]
pIC50: 6.01

CCOC(=O)c1[nH]c2cc(Cl)ccc2c1-c1cn(CC2CCN(CCNS(=O)(=O)c3ccc(Cl)cc3)CC2)nn1 [AB433, Ethyl 6-chloro-3-(1-((1-(2-((4-chlorophenyl)sulfonamido)ethyl)piperidin-4-yl)methyl)-1H-1,2,3-triazol-4-yl)-1H-indole-2-carboxylate]
pIC50: 5.09

CCOC(=O)c1[nH]c2ccc(Cl)cc2c1-c1cn(CC2CCN(CCNS(=O)(=O)c3ccc(Cl)cc3)CC2)nn1 [AB460, Ethyl 5-chloro-3-(1-((1-(2-((4-chlorophenyl)sulfonamido)ethyl)piperidin-4-yl)methyl)-1H-1,2,3-triazol-4-yl)-1H-indole-2-carboxylate]
pIC50: 5.60

CC(C)COC(=O)c1[nH]c2ccc(F)cc2c1-c1cn(CC2CCN(CCNS(=O)(=O)c3ccc(Cl)cc3)CC2)nn1 [AB498, Isobutyl 3-(1-((1-(2-((4-chlorophenyl)sulfonamido)ethyl)piperidin-4-yl)methyl)-1H-1,2,3-triazol-4-yl)-5-fluoro-1H-indole-2-carboxylate]
pIC50: 6.08

CC(C)COC(=O)c1[nH]c2ccc(Cl)cc2c1-c1cn(CC2CCN(CCNS(=O)(=O)c3ccc(Cl)cc3)CC2)nn1 [AB499, Isobutyl 5-chloro-3-(1-((1-(2-((4-chlorophenyl)sulfonamido)ethyl)piperidin-4-yl)methyl)-1H-1,2,3-triazol-4-yl)-1H-indole-2-carboxylate]
pIC50: 6.17

CCOC(=O)c1[nH]c2cc(Cl)ccc2c1-c1cn(CC2CCN(CCNS(=O)(=O)c3ccc(C)cc3)CC2)nn1 [AB503, Ethyl 6-chloro-3-(1-((1-(2-((4-methylphenyl)sulfonamido)ethyl)piperidin-4-yl)methyl)-1H-1,2,3-triazol-4-yl)-1H-indole-2-carboxylate]
pIC50: 5.01

CCOC(=O)c1[nH]c2ccc(F)cc2c1-c1cn(CC2CCN(CCNS(=O)(=O)c3ccc(C)cc3)CC2)nn1 [AB504, Ethyl 5-fluoro-3-(1-((1-(2-((4-methylphenyl)sulfonamido)ethyl)piperidin-4-yl)methyl)-1H-1,2,3-triazol-4-yl)-1H-indole-2-carboxylate]
pIC50: 5.74

CCOC(=O)c1[nH]c2ccc(Cl)cc2c1-c1cn(CC2CCN(CCNS(=O)(=O)c3ccc(C)cc3)CC2)nn1 [AB505, Ethyl 5-chloro-3-(1-((1-(2-((4-methylphenyl)sulfonamido)ethyl)piperidin-4-yl)methyl)-1H-1,2,3-triazol-4-yl)-1H-indole-2-carboxylate]
pIC50: 5.42

CCOC(=O)c1[nH]c2ccc(F)cc2c1-c1cn(CC2CCN(CCNS(=O)(=O)c3ccc(C(F)(F)F)cc3)CC2)nn1 [AB529, Ethyl 5-fluoro-3-(1-((1-(2-((4-(trifluoromethyl)phenyl)sulfonamido)ethyl)piperidin-4-yl)methyl)-1H-1,2,3-triazol-4-yl)-1H-indole-2-carboxylate]
pIC50: 6.15

CCOC(=O)c1[nH]c2ccc(F)cc2c1-c1cn(CC2CCN(CCNS(=O)(=O)c3ccc4ccccc4c3)CC2)nn1 [AB536, Ethyl 5-fluoro-3-(1-((1-(2-(naphthalene-2-sulfonamido)ethyl)piperidin-4-yl)methyl)-1H-1,2,3-triazol-4-yl)-1H-indole-2-carboxylate]
pIC50: 6.10

CCOC(=O)c1[nH]c2ccc(Cl)cc2c1-c1cn(CC2CCN(CCNS(=O)(=O)c3ccc(CC)cc3)CC2)nn1 [AB543, Ethyl 5-chloro-3-(1-((1-(2-((4-ethylphenyl)sulfonamido)ethyl)piperidin-4-yl)methyl)-1H-1,2,3-triazol-4-yl)-1H-indole-2-carboxylate]
pIC50: 6.03

CCOC(=O)c1[nH]c2ccc(Cl)cc2c1-c1cn(CC2CCN(CCNS(=O)(=O)c3ccc(C(F)(F)F)cc3)CC2)nn1 [AB550, Ethyl 5-chloro-3-(1-((1-(2-((4-(trifluoromethyl)phenyl)sulfonamido)ethyl)piperidin-4-yl)methyl)-1H-1,2,3-triazol-4-yl)-1H-indole-2-carboxylate]
pIC50: 5.65

CCOC(=O)c1[nH]c2ccc(Cl)cc2c1-c1cn(CC2CCN(CCNS(=O)(=O)c3ccc4ccccc4c3)CC2)nn1 [AB551, Ethyl 5-chloro-3-(1-((1-(2-(naphthalene-2-sulfonamido)ethyl)piperidin-4-yl)methyl)-111-1,2,3-triazol-4-yl)-1H-indole-2-carboxylate]
pIC50: 5.75

CCc1ccc(S(=O)(=O)NCCN2CCC(Cn3cc(-c4c(C(=O)OCC(C)C)[nH]c5ccc(F)cc45)nn3)CC2)cc1 [AB556, Isobutyl 3-(1-((1-(2-((4-ethylphenyl)sulfonamido)ethyl)piperidin-4-yl)methyl)-1H-1,2,3-triazol-4-yl)-5-fluoro-1H-indole-2-carboxylate]
pIC50: 6.77

CCc1ccc(S(=O)(=O)NCCN2CCC(Cn3cc(-c4c(C(=O)OCC(C)C)[nH]c5ccc(Cl)cc45)nn3)CC2)cc1 [AB557, Isobutyl 5-chloro-3-(1-((1-(2-((4-ethylphenyl)sulfonamido)ethyl)piperidin-4-yl)methyl)-1H-1,2,3-triazol-4-yl)-1H-indole-2-carboxylate]
pIC50: 6.25

CCc1ccc(S(=O)(=O)NCCN2CCC(Cn3cc(-c4c(C(=O)OC(C)C)[nH]c5ccc(F)cc45)nn3)CC2)cc1 [AB577, Isopropyl 3-(1-((1-(2-((4-ethylphenyl)sulfonamido)ethyl)piperidin-4-yl)methyl)-1H-1,2,3-triazol-4-yl)-5-fluoro-1H-indole-2-carboxylate]
pIC50: 5.64

CCc1ccc(S(=O)(=O)NCCN2CCC(Cn3cc(-c4c(C(=O)OC(C)C)[nH]c5ccc(Cl)cc45)nn3)CC2)cc1 [AB578, Isopropyl 5-chloro-3-(1-((1-(2-((4-ethylphenyl)sulfonamido)ethyl)piperidin-4-yl)methyl)-1H-1,2,3-triazol-4-yl)-1H-indole-2-carboxylate]
pIC50: 5.04

CCOC(=O)c1[nH]c2ccc(F)cc2c1-c1cn(CC2CCN(CCNS(=O)(=O)c3ccc(C(C)C)cc3)CC2)nn1 [AB579, Ethyl 5-fluoro-3-(1-((1-(2-((4-isopropylphenyl)sulfonamido)ethyl)piperidin-4-yl)methyl)-1H-1,2,3-triazol-4-yl)-1H-indole-2-carboxylate]
pIC50: 6.37

CCOC(=O)c1[nH]c2ccc(Cl)cc2c1-c1cn(CC2CCN(CCNS(=O)(=O)c3ccc(C(C)C)cc3)CC2)nn1 [AB582, Ethyl 5-chloro-3-(1-((1-(2-((4-isopropylphenyl)sulfonamido)ethyl)piperidin-4-yl)methyl)-1H-1,2,3-triazol-4-yl)-1H-indole-2-carboxylate]
pIC50: 5.90

CCc1ccc(S(=O)(=O)NCCN2CCC(Cn3cc(-c4c(C(=O)OCCO)[nH]c5ccc(F)cc45)nn3)CC2)cc1 [AB597, 2-Hydroxyethyl 3-(1-((1-(2-((4-ethylphenyl)sulfonamido)ethyl)piperidin-4 yl)methyl)-1H-1,2,3-triazol-4-yl)-5-fluoro-1H-indole-2-carboxylate]
pIC50: 5.80

CC(C)COC(=O)c1[nH]c2ccc(F)cc2c1-c1cn(CC2CCN(CCNS(=O)(=O)c3ccc4ccccc4c3)CC2)nn1 [AB598, Isobutyl 5-fluoro-3-(1-((1-(2-(naphthalene-2-sulfonamido)ethyl)piperidin-4-yl)methyl)-1H-1,2,3-triazol-4-yl)-1H-indole-2-carboxylate]
pIC50: 6.29

CC(C)COC(=O)c1[nH]c2ccc(Cl)cc2c1-c1cn(CC2CCN(CCNS(=O)(=O)c3ccc4ccccc4c3)CC2)nn1 [AB599, Isobutyl 5-chloro-3-(1-((1-(2-(naphthalene-2-sulfonamido)ethyl)piperidin-4-yl)methyl)-1H-1,2,3-triazol-4-yl)-1H-indole-2-carboxylate]
pIC50: 5.49

CC(C)COC(=O)c1[nH]c2ccc(F)cc2c1-c1cn(CC2CCN(CCNS(=O)(=O)c3ccc(C(F)(F)F)cc3)CC2)nn1 [AB600, Isobutyl 5-fluoro-3-(1-((1-(2-((4-(trifluoromethyl)phenyl)sulfonamido)ethyl)piperidin-4-yl)methyl)-1H-1,2,3-triazol-4-yl)-1H-indole-2-carboxylate]
pIC50: 6.46

CC(C)COC(=O)c1[nH]c2ccc(Cl)cc2c1-c1cn(CC2CCN(CCNS(=O)(=O)c3ccc(C(F)(F)F)cc3)CC2)nn1 [AB601, Isobutyl 5-chloro-3-(1-((1-(2-((4-(trifluoromethyl)phenyl)sulfonamido)ethyl)piperidin-4-yl)methyl)-1H-1,2,3-triazol-4-yl)-1H-indole-2-carboxylate]
pIC50: 5.85
